Data as given in patent publication US9611252B2 (LifeSci Pharmaceuticals, Inc., priority 2013, dated 2017).
Read-outs that look alike come from different tables or passages of the source.

What was measured:
kallikrein = kallikrein (Homo sapiens (Human), UniProt P03952); assay: In vitro cellular assay (contact assay): kallikrein activity in ellagic acid-activated human plasma, substrate Z-FR-2-AMC; format: biochemical
Experimental: The ability of the compounds disclosed herein to inhibit cellular kallikrein activity was quantified and the respective EC50 value was determined.
All dilutions were prepared in an assay buffer comprising 50 mM Tris-HCl pH 7.2, 150 mM NaCl, and 0.01% Triton X-100.
The ten solutions of the test compounds, prepared by serial dilution, were further diluted 50-fold in the assay buffer.
Human plasma is thawed on ice and centrifuged for 15 min at 4° C. to remove platelets. A 1 mM stock solution of ellagic acid is diluted to 8 μM and mixed with human plasma, after removing platelets, at a ratio of 1:0.8.
A 22.5 μL volume of the final mixture of human plasma and ellagic acid was added to a 96-well microwell plate and the plate was incubated for 15 min at 37° C.
The CINH inhibitor at various concentrations, prepared by serial dilutions as described above, were added to the inhibitor control wells. […] Each CINH concentration is tested in duplicates.
The test compounds at various concentrations, also prepared by serial dilutions as described above, are added to the test wells. […] Each test compound concentration was tested in duplicates.
In addition to the inhibitor control and test wells, the 96 well assay plate includes positive control wells which contained the mixture of human plasma and ellagic acid without C1NH inhibitor or test compounds, and background wells which contained neither the mixture of human plasma and ellagic acid nor the test compounds. The total volume of liquid in positive control and background wells was brought up to 35 μL, using the assay buffer.
The assay plate containing C1NH inhibitors and test compounds mixed with human plasma and ellagic acid and appropriate controls was incubated at 37° C. for 5 min. […] The reagents were mixed well by shaking the plate gently for 30 sec.
The enzyme reaction was quantified by immediate kinetic reading of the assay plate using excitation/emission wavelengths of 330 nm/440 nm respectively. Fluorescence intensity was recorded for 60 min, using a time interval of 43 sec.
The inhibition activity of the test compounds were evaluated using the IC50 values, calculated according to the dose-response curve of the test compounds, fitted using the “log(inhibitor)-response (variable slope)” equation in GraphPadPrism software (GraphPad Software, Inc.).
The percentage inhibition was calculated using the following equation:
[formula] where, Mean(BG) is the average value of the fluorescence intensity of the background wells and Mean(PC) is the average value of the fluorescence intensity of the positive control wells.
Table 4 provides the EC50 values of various compounds disclosed herein.

human Plasma Kallikrein = human Plasma Kallikrein (Homo sapiens (Human), UniProt P03952); assay: In vitro enzyme inhibition of human plasma kallikrein (PFR-AMC cleavage); format: biochemical; conditions: human plasma kallikrein, Pro-Phe-Arg-AMC substrate, 37° C.; read-out: hPK IC50
Experimental: The ability of the compounds disclosed herein to inhibit human plasma kallikrein activity was quantified according to the procedures below.
A 10 mM solution of the test compound was made in DMSO. […] A control tube containing only DMSO is included. 16 μL of each compound test solution was combined with 384 μL of assay buffer (50 mM Tris-HCl pH 7.5, 150 mM NaCl, 0.01% Triton X-100) to yield a “4× test compound buffer stock”.
These solutions are hereby referred to as 4×hPK and 2×PFR-AMC, respectively.
50 μL was removed from this mixture and placed into duplicate wells on a Microfluor 1Black U-bottom microtiter plate (Thermo Scientific). This plate was incubated for 5 minutes at 37° C. To each well, 50 μL of pre-warmed 2×PFR-AMC was added to start the enzymatic reaction. Cleavage of PFR-AMC was monitored in a Biotek Synergy H4 reader set at 37° C. Readings are taken every 43 seconds for 1 hour. […] The IC50 is calculated using the Gen5 (Biotek Instruments).
The ability of the compounds in Table 3 to inhibit human plasma kallikrein activity was determined.

[1] = human plasma activated with ellagic acid, Z-FR-2-AMC substrate, 37° C., read-out: Contact Assay EC50

kallikrein, sequence (P03952 20-638): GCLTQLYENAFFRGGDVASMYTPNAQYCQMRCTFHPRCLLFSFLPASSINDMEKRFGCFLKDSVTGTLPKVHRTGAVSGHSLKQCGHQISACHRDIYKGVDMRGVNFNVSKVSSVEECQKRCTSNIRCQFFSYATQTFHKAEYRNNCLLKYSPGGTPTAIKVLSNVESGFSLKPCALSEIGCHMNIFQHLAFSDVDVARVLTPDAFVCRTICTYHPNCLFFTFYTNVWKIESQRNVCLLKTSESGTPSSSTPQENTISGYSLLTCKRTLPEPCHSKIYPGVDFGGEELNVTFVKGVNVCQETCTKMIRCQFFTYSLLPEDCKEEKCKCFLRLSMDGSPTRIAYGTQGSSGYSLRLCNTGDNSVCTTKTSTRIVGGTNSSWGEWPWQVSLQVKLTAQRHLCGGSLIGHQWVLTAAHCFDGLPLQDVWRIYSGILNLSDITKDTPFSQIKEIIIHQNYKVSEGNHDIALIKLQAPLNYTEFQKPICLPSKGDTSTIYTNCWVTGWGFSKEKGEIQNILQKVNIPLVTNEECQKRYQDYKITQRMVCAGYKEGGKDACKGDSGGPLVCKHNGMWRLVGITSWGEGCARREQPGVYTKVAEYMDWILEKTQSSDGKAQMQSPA
human Plasma Kallikrein, sequence (P03952 20-638): as above

| Compound | EC50 (kallikrein; [1]) [nM] | IC50 (human Plasma Kallikrein) [nM] | EC50 (kallikrein) [nM] |
| --- | --- | --- | --- |
| NC(=O)c1cc(Cc2cc(C(=O)NCc3n[nH]c4ccc(Cl)cc34)ccn2)cc2cc(Cl)cnc12 [Example 60, 3-chloro-6-((4-(((5-chloro-1H-indazol-3-yl)methyl)carbamoyl)pyridin-2-yl)methyl)quinoline-8-carboxamide] | 100 to 1000 | < 100 | – |
| N#Cc1cc(Cc2cc(C(=O)NCc3ccc4c(N)nccc4c3)ccn2)cc2cc(Cl)cnc12 [Example 57, N-(1-amino-isoquinolin-6-ylmethyl)-2-(3-chloro-8-cyano-quinolin-6-ylmethyl)-isonicotinamide] | – | < 100 | 100 to 1000 |
| Cc1cnc2c(C#N)cc(Cc3cc(C(=O)NCc4ccc5c(N)nccc5c4)ccn3)cc2c1 [Example 71, N-((1-aminoisoquinolin-6-yl)methyl)-2-((8-cyano-3-methylquinolin-6-yl)methyl)isonicotinamide] | < 100 | < 100 | – |
| COC(=O)c1cc(Cc2cc(C(=O)NCc3c(C)cc(N)nc3C)ccn2)cc2cc(Cl)cnc12 [Example 92, methyl 6-((4-(((6-amino-2,4-dimethylpyridin-3-yl)methyl)carbamoyl)pyridin-2-yl)methyl)-3-chloroquinoline-8-carboxylate] | – | < 100 | – |
| Cc1cc(N)[n+]([O-])c(C)c1CNC(=O)c1ccnc(Cc2ccc3ncc(Cl)cc3c2)c1 [Example 98, 6-amino-3-((2-((3-chloroquinolin-6-yl)methyl)isonicotinamido)methyl)-2,4-dimethylpyridine 1-oxide] | – | 100 to 1000 | – |
| Cc1cc(N)nc(C)c1CNC(=O)c1ccnc(Cc2ccc3[nH]cc(Cl)c3c2)c1 [Example 24, N-((6-amino-2,4-dimethylpyridin-3-yl)methyl)-2-((3-chloro-1H-indol-5-yl)methyl)isonicotinamide] | – | 100 to 1000 | – |
| O=C(NCc1cc2c(Cl)c[nH]c2cc1F)c1ccnc(Cc2cnc3cc(F)ccc3c2)c1 [Example 123, N-((3-chloro-6-fluoro-1H-indol-5-yl)methyl)-2-((7-fluoroquinolin-3-yl)methyl)isonicotinamide] | – | < 100 | – |
| Cc1cc(C(=O)NCc2c(C)cc(N)nc2C)cc(Cc2ccc3ncc(Cl)cc3c2)n1 [Example 104, N-((6-amino-2,4-dimethylpyridin-3-yl)methyl)-2-((3-chloroquinolin-6-yl)methyl)-6-methylisonicotinamide] | – | < 100 | – |
| N#Cc1cc(Cc2cc(C(=O)NCc3cnc4[nH]cc(Cl)c4c3)ccn2)cc2cc(Cl)cnc12 [Example 55, 2-(3-chloro-8-cyano-quinolin-6-ylmethyl)-N-(3-chloro-1H-pyrrolo[2,3-b]pyridin-5-ylmethyl)-isonicotinamide] | – | < 100 | – |
| CC(=O)NCc1ccc2cc(Cc3cc(C(=O)NCc4cc5c(Cl)c[nH]c5cc4F)ccn3)ccc2n1 [Example 9, 2-[2-(acetylamino-methyl)-quinolin-6-ylmethyl]-N-(3-chloro-6-fluoro-1H-indol-5-ylmethyl)-isonicotinamide] | – | 100 to 1000 | – |
| Cc1nc(N)ccc1CNC(=O)c1ccnc(Cc2cc(C#N)c3ncc(Cl)cc3c2)c1 [Example 56, N-(6-amino-2-methyl-pyridin-3-ylmethyl)-2-(3-chloro-8-cyano-quinolin-6-ylmethyl)-isonicotinamide] | – | – | 100 to 1000 |
| O=C(NCc1cc2cc[nH]c2cc1F)c1ccnc(Cc2ccc3ncc(Cl)cc3c2)c1 [Example 41, 2-(3-chloro-quinolin-6-ylmethyl)-N-(6-fluoro-1H-indol-5-ylmethyl)-isonicotinamide] | – | < 100 | – |

Now from value to molecule, other results behind:

| EC50 (kallikrein; [1]) [nM] | IC50 (human Plasma Kallikrein) [nM] | Compound | EC50 (kallikrein) [nM] |
| --- | --- | --- | --- |
| 100 to 1000 | < 100 | Cc1cc2cc(Cc3cc(C(=O)NCc4ccc5c(N)nccc5c4)ccn3)ccc2cn1 [Example 132, N-((1-aminoisoquinolin-6-yl)methyl)-2-((3-methylisoquinolin-6-yl)methyl)isonicotinamide] | – |
| < 100 | < 100 | CS(=O)(=O)c1cc(Cc2cc(C(=O)NCc3cc4c(Cl)c[nH]c4cc3F)ccn2)cc2cc(Cl)cnc12 [Example 68, N-((3-chloro-6-fluoro-1H-indol-5-yl)methyl)-2-((3-chloro-8-(methylsulfonyl)quinolin-6-yl)methyl)isonicotinamide] | – |
| < 100 | < 100 | Cc1cnc2c(C(N)=O)cc(Cc3cc(C(=O)NCc4cnc5[nH]cc(Cl)c5c4)ccn3)cc2c1 [Example 80, 6-((4-(((3-chloro-1H-pyrrolo[2,3-b]pyridin-5-yl)methyl)carbamoyl)pyridin-2-yl)methyl)-3-methylquinoline-8-carboxamide] | – |
| – | < 100 | O=C(NCc1cc2c(Cl)c[nH]c2cc1F)c1ccnc(Cc2cnc3cc(Cl)ccc3c2)c1 [Example 140, N-((3-chloro-6-fluoro-1H-indol-5-yl)methyl)-2-((7-chloroquinolin-3-yl)methyl)isonicotinamide] | – |
| – | < 100 | Cc1cc(N)ncc1CNC(=O)c1ccnc(Cc2ccc3ncc(Cl)cc3c2)c1 [Example 29, N-((6-amino-4-methylpyridin-3-yl)methyl)-2-((3-chloroquinolin-6-yl)methyl)isonicotinamide] | – |
| – | < 100 | Cc1ccc2ccc(Cc3cc(C(=O)NCc4ccc5c(N)nccc5c4)ccn3)cc2n1 [Example 127, N-((1-aminoisoquinolin-6-yl)methyl)-2-((2-methylquinolin-7-yl)methyl)isonicotinamide] | – |
| – | < 100 | Cc1cc(N)nc(C)c1CNC(=O)c1ccnc(Cc2ccc3nc(C#N)ccc3c2)c1 [Example 131, N-(6-amino-2,4-dimethyl-pyridin-3-ylmethyl)-2-(2-cyano-quinolin-6-ylmethyl)-isonicotinamide] | – |
| – | 100 to 1000 | Cc1ccc2nn(Cc3cc(C(=O)NCc4c(C)cc(N)nc4C)ccn3)cc2c1 [Example 107, N-((6-amino-2,4-dimethylpyridin-3-yl)methyl)-2-((5-methyl-2H-indazol-2-yl)methyl)isonicotinamide] | – |
| – | < 100 | Cc1nc(N)ccc1CNC(=O)c1ccnc(Cc2cc(CO)c3ncc(Cl)cc3c2)c1 [Example 97, N-((6-amino-2-methylpyridin-3-yl)methyl)-2-((3-chloro-8-(hydroxymethyl)quinolin-6-yl)methyl)isonicotinamide] | – |
| – | < 100 | Cc1nc(N)ccc1CNC(=O)c1ccnc(Cc2ccc3ncc(Cl)cc3c2F)c1 [Example 103, N-((6-amino-2-methylpyridin-3-yl)methyl)-2-((3-chloro-5-fluoroquinolin-6-yl)methyl)isonicotinamide] | – |
| – | < 100 | Cc1cc(N)nc(C)c1CNC(=O)c1ccnc(Cc2ccc3c(cc(Cl)c[n+]3[O-])c2)c1 [Example 99, 6-((4-(((6-amino-2,4-dimethylpyridin-3-yl)methyl)carbamoyl)pyridin-2-yl)methyl)-3-chloroquinoline 1-oxide] | – |
| – | 100 to 1000 | NCc1ccc2cc(Cc3cc(C(=O)NCc4ccc5c(N)nccc5c4)ccn3)ccc2n1 [Example 146, N-((1-aminoisoquinolin-6-yl)methyl)-2-((2-(aminomethyl)quinolin-6-yl)methyl)isonicotinamide] | – |
| – | < 100 | Cc1cc(N)nc(C)c1CNC(=O)c1ccnc(Cc2ccc3ncc(C#N)cc3c2)c1 [Example 7, N-((6-amino-2,4-dimethylpyridin-3-yl)methyl)-2-((3-cyanoquinolin-6-yl)methyl)isonicotinamide] | – |
| – | 1000 to 10000 | Cc1cc(N)nc(C)c1CNC(=O)c1ccnc(Cn2ccc3cc(Cl)ccc3c2=O)c1 [Example 23, N-((6-amino-2,4-dimethylpyridin-3-yl)methyl)-2-((6-chloro-1-oxoisoquinolin-2(1H)-yl)methyl)isonicotinamide] | – |
| – | 1000 to 10000 | Cc1cnc2ccc(Cc3cc(C(=O)NCc4ccc5c(N)noc5c4)ccn3)cc2c1 [Example 47, N-((3-aminobenzo[d]isoxazol-6-yl)methyl)-2-((3-methylquinolin-6-yl)methyl)isonicotinamide] | – |
